Test results taken from patent publication US10925876B2, “Methods for using triazolo-pyrazinyl soluble guanylate cyclase activators in fibrotic disorders” (Merck Sharp & Dohme Corp., priority 2016, dated 2021).

Legend:
[1] = molecular target: T1, sGC α1/β1 heterodimer (Homo sapiens, UniProt Q02108+Q02153); experiment: Cell-Based sGC Functional Assay (CASA Assay), cGMP generation in CHO-K1/sGC cells;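 also: reference Compound A is a published heme-dependent sGC activator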; settings: maximum cGMP production of Compound A set to 100% activation, read-out: % Act. (percent activation relative to Compound A)
T1 construct: expressed in transfected cells
T1 sequence (Q02108 1-690): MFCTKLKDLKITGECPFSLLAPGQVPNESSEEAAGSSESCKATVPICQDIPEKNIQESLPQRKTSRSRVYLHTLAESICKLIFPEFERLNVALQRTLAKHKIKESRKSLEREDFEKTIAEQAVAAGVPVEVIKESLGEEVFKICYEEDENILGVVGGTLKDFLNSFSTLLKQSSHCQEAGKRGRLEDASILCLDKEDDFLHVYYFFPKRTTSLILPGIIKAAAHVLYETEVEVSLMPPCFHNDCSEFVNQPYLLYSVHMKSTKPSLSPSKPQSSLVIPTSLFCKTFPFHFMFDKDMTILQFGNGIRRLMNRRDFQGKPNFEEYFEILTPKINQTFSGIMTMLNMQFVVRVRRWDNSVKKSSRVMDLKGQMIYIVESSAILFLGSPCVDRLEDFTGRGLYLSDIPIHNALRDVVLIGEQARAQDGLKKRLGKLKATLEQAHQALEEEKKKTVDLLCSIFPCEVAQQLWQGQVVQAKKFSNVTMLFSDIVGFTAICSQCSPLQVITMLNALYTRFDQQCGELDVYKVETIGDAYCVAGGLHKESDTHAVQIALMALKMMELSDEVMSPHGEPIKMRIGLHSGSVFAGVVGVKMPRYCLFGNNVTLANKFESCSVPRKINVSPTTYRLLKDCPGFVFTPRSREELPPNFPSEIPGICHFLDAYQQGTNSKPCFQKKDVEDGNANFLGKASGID
T1 sequence (Q02153 1-619): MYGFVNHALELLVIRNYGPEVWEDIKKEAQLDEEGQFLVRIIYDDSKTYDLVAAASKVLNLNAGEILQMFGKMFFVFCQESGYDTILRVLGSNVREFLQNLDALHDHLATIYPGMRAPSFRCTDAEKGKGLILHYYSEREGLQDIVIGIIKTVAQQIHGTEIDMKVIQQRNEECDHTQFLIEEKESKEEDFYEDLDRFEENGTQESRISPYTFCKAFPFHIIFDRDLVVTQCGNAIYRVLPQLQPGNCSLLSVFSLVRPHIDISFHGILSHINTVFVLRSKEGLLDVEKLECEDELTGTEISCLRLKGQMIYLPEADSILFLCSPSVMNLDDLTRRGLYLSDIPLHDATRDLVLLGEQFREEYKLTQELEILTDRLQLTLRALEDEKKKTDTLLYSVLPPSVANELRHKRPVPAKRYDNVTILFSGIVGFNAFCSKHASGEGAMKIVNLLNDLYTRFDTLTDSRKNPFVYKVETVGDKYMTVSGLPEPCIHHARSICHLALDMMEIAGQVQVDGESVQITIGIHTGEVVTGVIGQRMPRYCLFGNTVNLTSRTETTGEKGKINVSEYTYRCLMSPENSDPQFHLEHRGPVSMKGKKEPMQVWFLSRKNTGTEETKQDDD
Method in brief: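 Intracellular cGMP quantified by HTRF competition after 1 h, 37 °C compound exposure, with or without 1 μM DETA-NO, in stable CHO-K1/sGC α1/β1 cells (4×10^5/mL; buffer with 0.5 mM IBMX, 5 mM MgCl2, 10 mM HEPES, 0.05% BSA; 2.5% DMSO). Activation normalized to reference Compound A maximum; 4P fit.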

[2] = system: Spontaneously hypertensive rats (SHR); experiment: Acute Efficacy in Spontaneously Hypertensive Rats (SHR), telemetry blood pressure; type: in vivo, rat; settings: single oral gavage
Description: Spontaneously hypertensive rats (SHR, male, Charles River) were implanted with DSI TA11PA-C40 telemetry device (Data Sciences, Inc., St. Paul, Minn.) under isoflurane or ketamine/metomidine anesthesia. The telemetry unit catheter was inserted into the descending aorta via the femoral artery and the telemetry device was implanted subcutaneously in the left flank area. Animals were allowed to recover from surgery for 14 days before the start of any studies. Blood pressure, heart rate, and activity signals from conscious, freely moving rats were recorded continuously for 30 seconds every 10 minutes. On the day prior to administration of compound, a single oral dose of vehicle (10% transcutol/20% Cremophor/70% water) was administered to all animals to establish baseline control data. The blood pressure lowering efficacy of compound (PO) or vehicle was evaluated following a single oral gavage. Data were collected as hourly averages, and changes in blood pressure were calculated by subtracting control baseline data on an hourly basis. Animals were maintained on normal diet with a 12 hour light-dark cycle.
Maximum peak decreases of systolic blood pressure (SBP) in SHR at a particular P.O. dose (mpk milligrams per kilogram) for the following representative compounds are provided. Category A=SBP in SHRs <20 mmHg; Category B=SBP in SHRs 20-40 mmHg; Category C=SBP in SHRs >40 mmHg.

| Compound | Emax [1] [%] | Maximum peak decrease of systolic blood pressure (SBP) in SHR, Cat. ([2]; P.O. 0.3 mpk) | Maximum peak decrease of systolic blood pressure (SBP) in SHR, Cat. ([2]; P.O. 3 mpk) | Maximum peak decrease of systolic blood pressure (SBP) in SHR, Cat. ([2]; P.O. 1 mpk) | Maximum peak decrease of systolic blood pressure (SBP) in SHR, Cat. ([2]; P.O. 0.1 mpk) |
| --- | --- | --- | --- | --- | --- |
| CC1(c2ccc(F)cn2)C(=O)Nc2nc(-c3cn4ncnc4c(CCC(F)(F)C(F)(F)F)n3)nc(N)c21 (stereo not drawn) [Example 4B, 4-amino-5-(5-fluoropyridin-2-yl)-5-methyl-2-(8-(3,3,4,4,4-pentafluorobutyl)-[1,2,4]triazolo[1,5-a]pyrazin-6-yl)-5H-pyrrolo[2,3-d]pyrimidin-6(7H)-one] | 157 | C (Category C=SBP in SHRs >40 mmHg) | – | – | – |
| Nc1nc(-c2cn3ncnc3c(CCC(F)(F)C(F)(F)F)n2)nc2c1C(c1ccc(Cl)cn1)(C1CC1)C(=O)N2 (stereo not drawn) [Example 7A, 4-amino-5-(5-chloropyridin-2-yl)-5-cyclopropyl-2-(8-(3,3,4,4,4-pentafluorobutyl)-[1,2,4]triazolo[1,5-a]pyrazin-6-yl)-5H-pyrrolo[2,3-d]pyrimidin-6(7H)-one] | 185 | B (Category B=SBP in SHRs 20-40 mmHg) | – | – | – |
| Nc1nc(-c2cn3ncnc3c(CCC(F)(F)C(F)(F)F)n2)nc2c1C(c1cncc(F)c1)(C1CC1)C(=O)N2 (stereo not drawn) [Example 8B, 4-amino-5-cyclopropyl-5-(5-fluoropyridin-3-yl)-2-(8-(3,3,4,4,4-pentafluorobutyl)-[1,2,4]triazolo[1,5-a]pyrazin-6-yl)-5H-pyrrolo[2,3-d]pyrimidin-6(7H)-one] | 177 | – | B (Category B=SBP in SHRs 20-40 mmHg) | – | – |
| CC1(c2cncc(F)c2)C(=O)Nc2nc(-c3cn4ncnc4c(CCC(F)(F)C(F)(F)F)n3)nc(N)c21 (stereo not drawn) [Example 9A, 4-amino-5-(5-fluoropyridin-3-yl)-5-methyl-2-(8-(3,3,4,4,4-pentafluorobutyl)-[1,2,4]triazolo[1,5-a]pyrazin-6-yl)-5H-pyrrolo[2,3-d]pyrimidin-6(7H)-one] | 119 | – | – | B (Category B=SBP in SHRs 20-40 mmHg) | – |
| CC1(c2ccccc2)C(=O)Nc2nc(-c3cn4ncnc4c(CCC(F)(F)C(F)(F)F)n3)nc(N)c21 (stereo not drawn) [Example 12B, 4-amino-5-methyl-2-(8-(3,3,4,4,4-pentafluorobutyl)-[1,2,4]triazolo[1,5-a]pyrazin-6-yl)-5-phenyl-5H-pyrrolo[2,3-d]pyrimidin-6(7H)-one] | 122 | – | – | – | B (Category B=SBP in SHRs 20-40 mmHg) |
| CC1(c2ccc(C#N)cn2)C(=O)Nc2nc(-c3cn4ncnc4c(CCC(F)(F)C(F)(F)F)n3)nc(N)c21 (stereo not drawn) [Example 18A] | 75 | C (Category C=SBP in SHRs >40 mmHg) | – | – | – |
| CC(C)n1cc(C2(C)C(=O)Nc3nc(-c4cn5ncnc5c(CCC(F)(F)C(F)(F)F)n4)nc(N)c32)nn1 (stereo not drawn) [Example 20A, 4-amino-5-(1-isopropyl-1H-1,2,3-triazol-4-yl)-5-methyl-2-(8-(3,3,4,4,4-pentafluorobutyl)-[1,2,4]triazolo[1,5-a]pyrazin-6-yl)-5H-pyrrolo[2,3-d]pyrimidin-6(7H)-one] | 131 | – | – | C (Category C=SBP in SHRs >40 mmHg) | – |
| CC1(c2ccc(C(F)(F)F)cn2)C(=O)Nc2nc(-c3cn4ncnc4c(CCCC(F)(F)F)n3)nc(N)c21 (stereo not drawn) [Example 25B, 4-amino-5-methyl-2-(8-(4,4,4-trifluorobutyl)-[1,2,4]triazolo[1,5-a]pyrazin-6-yl)-5-(5-(trifluoromethyl)pyridin-2-yl)-5H-pyrrolo[2,3-d]pyrimidin-6(7H)-one] | 131 | B (Category B=SBP in SHRs 20-40 mmHg) | – | – | – |
| Nc1nc(-c2cn3ncnc3c(CCCC(F)(F)F)n2)nc2c1C(c1ccc(Cl)c(F)c1)(C1CC1)C(=O)N2 (stereo not drawn) [Example 33A, 4-amino-5-(4-chloro-3-fluorophenyl)-5-cyclopropyl-2-(8-(4,4,4-trifluorobutyl)-[1,2,4]triazolo[1,5-a]pyrazin-6-yl)-5H-pyrrolo[2,3-d]pyrimidin-6(7H)-one] | 107 | C (Category C=SBP in SHRs >40 mmHg) | – | – | – |
| Nc1nc(-c2cn3ncnc3c(CCCC(F)(F)F)n2)nc2c1C(c1ccc(F)cn1)(C1CC1)C(=O)N2 (stereo not drawn) [Example 34A, 4-amino-5-cyclopropyl-5-(5-fluoropyridin-2-yl)-2-(8-(4,4,4-trifluorobutyl)-[1,2,4]triazolo[1,5-a]pyrazin-6-yl)-5H-pyrrolo[2,3-d]pyrimidin-6(7H)-one] | 235 | C (Category C=SBP in SHRs >40 mmHg) | – | – | – |

Continued, in another order:

| Emax [1] [%] | Compound | Maximum peak decrease of systolic blood pressure (SBP) in SHR, Cat. ([2]; P.O. 0.3 mpk) | Maximum peak decrease of systolic blood pressure (SBP) in SHR, Cat. ([2]; P.O. 3 mpk) | Maximum peak decrease of systolic blood pressure (SBP) in SHR, Cat. ([2]; P.O. 1 mpk) | Maximum peak decrease of systolic blood pressure (SBP) in SHR, Cat. ([2]; P.O. 0.1 mpk) |
| --- | --- | --- | --- | --- | --- |
| 161 | CC1(c2ccc(Cl)cn2)C(=O)Nc2nc(-c3cn4ncnc4c(CCC(F)(F)C(F)(F)F)n3)nc(N)c21 (stereo not drawn) [Example 3A, 4-amino-5-(5-chloropyridin-2-yl)-5-methyl-2-(8-(3,3,4,4,4-pentafluorobutyl)-[1,2,4]triazolo[1,5-a]pyrazin-6-yl)-5H-pyrrolo[2,3-d]pyrimidin-6(7H)-one] | B (Category B=SBP in SHRs 20-40 mmHg) | – | – | – |
| 208 | CC1(c2ccccn2)C(=O)Nc2nc(-c3cn4ncnc4c(CCC(F)(F)C(F)(F)F)n3)nc(N)c21 (stereo not drawn) [Example 11B, 4-amino-5-methyl-2-(8-(3,3,4,4,4-pentafluorobutyl)-[1,2,4]triazolo[1,5-a]pyrazin-6-yl)-5-(pyridin-2-yl)-5H-pyrrolo[2,3-d]pyrimidin-6(7H)-one] | B (Category B=SBP in SHRs 20-40 mmHg) | – | – | – |
| 109 | CC1(c2ccc(C3CC3)nc2)C(=O)Nc2nc(-c3cn4ncnc4c(CCC(F)(F)C(F)(F)F)n3)nc(N)c21 (stereo not drawn) [Example 13B, 4-amino-5-(6-cyclopropylpyridin-3-yl)-5-methyl-2-(8-(3,3,4,4,4-pentafluorobutyl)-[1,2,4]triazolo[1,5-a]pyrazin-6-yl)-5H-pyrrolo[2,3-d]pyrimidin-6(7H)-one] | – | – | B (Category B=SBP in SHRs 20-40 mmHg) | – |
| 82 | CC1(c2ccccn2)C(=O)Nc2nc(-c3cn4ncnc4c(CCCC(F)(F)F)n3)nc(N)c21 (stereo not drawn) [Example 36B, 4-amino-5-methyl-5-(pyridin-2-yl)-2-(8-(4,4,4-trifluorobutyl)-[1,2,4]triazolo[1,5-a]pyrazin-6-yl)-5H-pyrrolo[2,3-d]pyrimidin-6(7H)-one] | – | – | B (Category B=SBP in SHRs 20-40 mmHg) | – |
| 96 | COc1ccc(C2(C3CC3)C(=O)Nc3nc(-c4cn5ncnc5c(CCCC(F)(F)F)n4)nc(N)c32)nc1 (stereo not drawn) [Example 39A, 4-amino-5-cyclopropyl-5-(5-methoxypyridin-2-yl)-2-(8-(4,4,4-trifluorobutyl)-[1,2,4]triazolo[1,5-a]pyrazin-6-yl)-5H-pyrrolo[2,3-d]pyrimidin-6(7H)-one] | B (Category B=SBP in SHRs 20-40 mmHg) | – | – | – |
